Measured values: patent publication US10081615B2, “Sulfamate derivative compounds for use in treating or alleviating pain” (Bio-Pharm Solutions Co., Ltd., priority 2013, dated 2018)
Where two headings read alike, the source gives them in different places.

Experiments:
[1] = system: acetic acid-induced writhes; assay: Writhing test (acetic acid); format: in vivo, ICR mice
Method: To examine the pain relief effect of the sulfamate derivative compounds, a writhing test was referring to Fischer, L. G. et al. (2008).
ICR mice (male, 24-28 g; Orient Bio, Korea) were habituated before test in test room for 1 hour. Animals were fasted for 2 hr before administration of compounds. […] All compounds were dissolved in a vehicle of 30% (v/v) PEG 400 or 20% (v/v) Tween 80. The control group was treated with the vehicle without compounds.
[…] Animals were habituated in the cage for 5 min. 5 min after habituation, the number of writhes (abdominal constriction) was counted for 15 minutes referring to Korzeniewska-Rybicka, I. et al. (1998) and compared with that of the control.

STZ-induced pain model = assay: Antiallodynic activity in the streptozotocin (STZ)-induced diabetic pain model (von Frey); format: in vivo, Sprague-Dawley rats; conditions: 0.5 h; for ED50: ip
Method: Male, Sprague-Dawley rats (200-220 g, Nara Bio, Korea) were habituated for 1 week before surgery and allowed free access to food and water throughout the experimentation. Room temperature and humidity were maintained at 24±2° C. and 50±10%, respectively.
The STZ-induced diabetic pain model was established with a modified method of Rakieten et al. (1963) and Bertrand Aubel et al. (2004). All animals were fasted for 4 to 6 hr prior to STZ injection. STZ (sigma, USA) was dissolved in 20 mM sodium citrate buffer, pH 5.5 (Sigma. USA) and intraperitoneally injected at 75 mg/kg, 4 ul/g by bodyweight into the rats. Sham controls were injected with same volume of 20 mM sodium citrate buffer, pH 5.5, and vehicle controls were identical to STZ model except for administration of vehicles without treatment. Rats were supplied with 10% sucrose water for 2 days to protect against sudden hypoglycemia, 3 days later, the induction of diabetes was checked by the measurement of tail vein blood glucose levels with a blood glucose meter. (LifeScan OneTouch Ultra, USA). […]
Tactile sensitivity (mechanical allodynia) was evaluated using von Frey monofilaments before and after treatment of the compound of Examples and the animals were included in the study only if the withdrawal threshold value was less than 4 g. […] The tactile sensitivity for the ipsilateral hind paw was measured using the up-and-down method (Dixon, 1980) with seven von Frey monofilaments (0.4, 1, 2, 4, 6, 8, and 15 g) in 3 trials. […] The 50% paw withdrawal threshold for each paw was calculated using the following formula: [Xth] log=[vFr] log+ky where [vFr] is the force of the last von Frey used, k=0.2249 which is the average interval (in log units) between the von Frey monofilaments, and y is a value that depends upon the pattern of withdrawal responses (Dixon, 1980). […]
The relative values compared to the sham (% control) were calculated and shown in Table 9, which show an antiallodynic effect of the compound of examples on STZ-induced pain model in rats.

[2] = system: Vincristine-induced pain model; assay: Antiallodynic activity in the vincristine-induced pain model (von Frey); format: in vivo, Sprague-Dawley rats; conditions: rat, intraperitoneal, 0.5 h; for ED50: ip
Method: Male, Sprague-Dawley rats (300-320 g, Nara Bio, Korea) were habituated for 1 week before surgery and allowed free access to food and water throughout the experimentation. Room temperature and humidity were maintained at 24±2° C. and 50±10%, respectively.
The vincristine-induced pain model was established by the procedure of Natsuko et al. (2001) with minor modifications. Vincristine was intravenously infused continuously for 14 days using a mini-osmotic pump as follows: Vincristine sulfate solution (Hospira, Australia) was diluted with 0.9% saline to a final dose of 30 ug/kg. The pumps (Alzet Model 2002, USA) were filled with the vincristine solution and primed by incubation at 37° C. for 4 h before the infusion. Briefly, animals were put under gaseous anesthesia with isoflurane and NO with a 4:4 flow ratio. A catheter made from PE-60 tubing was inserted into an external jugular vein in the rat. Sham controls were prepared in the same manner, with the external jugular vein exposed, but not cut down. Preparation of the vehicle controls were identical to the group treated with compound, except for administration of vehicles without compound in the vehicle control group.
Tactile sensitivity (mechanical allodynia) was evaluated using von Frey monofilaments before and after treatment, and the animals were included in the study only if the withdrawal threshold value was less than 4 g. One week after surgery, vincristine-infused animals (n=6), sham-operated animals (n=12) and vehicle-operated (n=18) animals were tested for tactile sensitivity with von Frey monofilaments with 3 trials in each animal. All animals were placed in a stainless steel mesh chamber and habituated for 30 min in the test cage. The tactile sensitivity for the ipsilateral hind paw was measured using the up-and-down method (Dixon, 1980) with seven von Frey monofilaments (0.4, 1, 2, 4, 6, 8, and 15 g) in 3 trials. The tactile sensitivity test was followed by Dixon's method. The 50% paw withdrawal threshold for each paw was calculated using the following formula: [Xth] log=[vFr] log+ky where [vFr] is the force of the last von Frey used, k=0.2249 which is the average interval (in log units) between the von Frey monofilaments, and y is a value that depends upon the pattern of withdrawal responses (Dixon, 1980).
[…] The test was performed at the peak time of efficacy (0.5 hr) after compound administration.
The relative values compared to the sham (% control) were calculated and are shown in Table 11, which show an antiallodynic effect of the compound of examples in the vincristine-induced pain model in rats.

[3] = Mus musculus, po, 0.5 h, read-out: Writh test: ED50 mg/kg

## CC1(C)Oc2ccccc2[C@@H](COS(N)(=O)=O)O1 [Example 2, ((S)-2,2-dimethyl-4H-benzo[d][1,3]dioxin-4-yl)methyl sulfamate]
[1]; mouse, oral, 1 h, read-out: Writh test: ED50
  ED50: 152 mg/kg
STZ-induced pain model; rat, intraperitoneal, read-out: STZ model: ED50
  ED50: 27.4 mg/kg

## CC1(C)Oc2ccccc2[C@H](COS([NH-])(=O)=O)O1.[Na+] [Example 58, Sodium (R)-(((2,2-dimethyl-4H-benzo[d][1,3]dioxin-4-yl)methoxy)sulfonyl)amide Trihydrate]
[2]
  ED50: 6.2 mg/kg

## CC1(C)Oc2ccccc2C(COS([NH-])(=O)=O)O1.[Na+] (centres unmarked) [Example 60, Sodium (((2,2-dimethyl-4H-benzo[d][1,3]dioxin-4-yl)methoxy)sulfonyl)amide Trihydrate]
[1]; [3]
  ED50: 21 mg/kg
STZ-induced pain model; Rattus norvegicus, read-out: STZ model: ED50 mg/kg
  ED50: 16.1 mg/kg
[2]
  ED50: 2.4 mg/kg

## [NH-]S(=O)(=O)OC[C@H]1OC2(CCCC2)Oc2ccccc21.[Na+] [Example 65, Sodium (S)-(((4H-spiro[benzo[d][1,3]dioxine-2,1′-cyclopentan]-4-yl)methoxy)sulfonyl)amide]
[1]; [3]
  ED50: 55.1 mg/kg
STZ-induced pain model; rat, intraperitoneal, 100 mg/kg administered
  STZ model: effect (%) compared to control: (25.7%, 0.5 h)
[2]
  ED50: 8.2 mg/kg

## CC1(C)Oc2ccccc2[C@H](COS([NH-])(=O)=O)O1.[K+] [Example 70, Potassium (R)-(((2,2-dimethyl-4H-benzo[d][1,3]dioxin-4-yl)methoxy)sulfonyl)amide]
[1]; mouse, oral, 80 mg/kg administered, 1 hr
  Writh test: effect (%) compared to control: (29.1%, 1 hr)
[2]; 2.4 mg/kg administered
  Vincristine model: effect (%) compared to control: (36.2%, 0.5 h)
